Results from the NIST ThermoML archive (doi:10.1021/je049762q).
± gives the expanded uncertainty stated by the source.

Experiment: molar heat capacity at constant pressure
Settings: 101.33 kPa

Brc1ccc(Br)cc1 [1,4-dibromobenzene]
molar heat capacity at constant pressure [J/K/mol]
Settings | Crystal | Liquid
5.27 K | 1.01 ± 0.04 | –
5.8 K | 1.18 ± 0.04 | –
6.45 K | 1.36 ± 0.05 | –
6.5 K | 1.38 ± 0.05 | –
7.46 K | 2.31 ± 0.06 | –
7.64 K | 2.66 ± 0.07 | –
7.71 K | 2.81 ± 0.07 | –
8.52 K | 3.67 ± 0.08 | –
8.77 K | 3.87 ± 0.08 | –
9.03 K | 4.08 ± 0.09 | –
9.52 K | 4.41 ± 0.09 | –
10 K | 5.01 ± 0.1 | –
10.07 K | 5.11 ± 0.1 | –
10.26 K | 5.43 ± 0.11 | –
10.6 K | 5.83 ± 0.11 | –
11.8 K | 6.63 ± 0.12 | –
12.15 K | 7.18 ± 0.13 | –
12.41 K | 7.69 ± 0.13 | –
12.47 K | 7.8 ± 0.14 | –
13.6 K | 9.64 ± 0.16 | –
14.05 K | 10.68 ± 0.17 | –
14.2 K | 10.78 ± 0.17 | –
15 K | 12.33 ± 0.19 | –
15.55 K | 13.29 ± 0.2 | –
15.57 K | 13.3 ± 0.2 | –
15.9 K | 13.84 ± 0.2 | –
16.68 K | 14.94 ± 0.21 | –
17.46 K | 16.03 ± 0.22 | –
17.68 K | 16.47 ± 0.22 | –
17.94 K | 16.83 ± 0.23 | –
18.59 K | 17.79 ± 0.23 | –
19.73 K | 19.51 ± 0.24 | –
20 K | 19.9 ± 0.24 | –
20.25 K | 20.25 ± 0.25 | –
22.16 K | 22.72 ± 0.25 | –
22.64 K | 23.37 ± 0.26 | –
23.84 K | 25.08 ± 0.26 | –
24.7 K | 25.82 ± 0.26 | –
25 K | 26.17 ± 0.26 | –
26.55 K | 28 ± 0.25 | –
27.15 K | 28.54 ± 0.25 | –
28.82 K | 30.45 ± 0.24 | –
29.32 K | 30.8 ± 0.24 | –
30 K | 31.55 ± 0.21 | –
31.01 K | 32.68 ± 0.21 | –
31.27 K | 32.7 ± 0.21 | –
33.06 K | 34.41 ± 0.22 | –
33.29 K | 34.82 ± 0.22 | –
35.63 K | 36.98 ± 0.23 | –
38.01 K | 38.95 ± 0.24 | –
40 K | 40.38 ± 0.24 | –
40.43 K | 40.7 ± 0.24 | –
42.9 K | 42.52 ± 0.25 | –
45.4 K | 44.29 ± 0.26 | –
47.94 K | 45.99 ± 0.26 | –
50 K | 47.3 ± 0.27 | –
50.51 K | 47.61 ± 0.27 | –
53.12 K | 49.13 ± 0.28 | –
55.75 K | 50.72 ± 0.28 | –
58.41 K | 52.22 ± 0.29 | –
60 K | 53.1 ± 0.29 | –
61.09 K | 53.7 ± 0.3 | –
63.8 K | 55.15 ± 0.3 | –
66.54 K | 56.56 ± 0.31 | –
69.3 K | 57.98 ± 0.31 | –
70 K | 58.33 ± 0.31 | –
72.07 K | 59.33 ± 0.32 | –
74.86 K | 60.72 ± 0.32 | –
77.68 K | 62.03 ± 0.33 | –
80 K | 63.11 ± 0.33 | –
80.51 K | 63.35 ± 0.33 | –
83.36 K | 64.67 ± 0.34 | –
86.22 K | 65.91 ± 0.34 | –
89.08 K | 67.21 ± 0.35 | –
89.28 K | 67.47 ± 0.35 | –
90 K | 67.83 ± 0.54 | –
91.9 K | 68.39 ± 0.54 | –
92.15 K | 68.67 ± 0.54 | –
94.65 K | 69.5 ± 0.54 | –
95.04 K | 69.84 ± 0.54 | –
97.35 K | 70.59 ± 0.54 | –
97.94 K | 71.11 ± 0.54 | –
100 K | 71.7 ± 0.54 | –
100.85 K | 72.3 ± 0.54 | –
102.59 K | 72.97 ± 0.55 | –
103.77 K | 73.61 ± 0.55 | –
105.15 K | 73.98 ± 0.55 | –
106.7 K | 74.69 ± 0.55 | –
109.64 K | 75.86 ± 0.55 | –
110 K | 76 ± 0.55 | –
112.58 K | 77.06 ± 0.55 | –
115.54 K | 78.22 ± 0.56 | –
118.5 K | 79.39 ± 0.56 | –
120 K | 79.98 ± 0.56 | –
121.46 K | 80.54 ± 0.56 | –
124.44 K | 81.71 ± 0.56 | –
127.42 K | 82.85 ± 0.57 | –
130 K | 83.85 ± 0.57 | –
130.4 K | 84.01 ± 0.57 | –
133.39 K | 85.14 ± 0.57 | –
136.39 K | 86.25 ± 0.57 | –
139.39 K | 87.37 ± 0.57 | –
140 K | 87.59 ± 0.58 | –
142.39 K | 88.47 ± 0.58 | –
145.4 K | 89.57 ± 0.58 | –
148.41 K | 90.66 ± 0.58 | –
150 K | 91.25 ± 0.58 | –
151.43 K | 91.77 ± 0.58 | –
154.45 K | 92.84 ± 0.59 | –
157.47 K | 93.92 ± 0.59 | –
160 K | 94.86 ± 0.59 | –
160.49 K | 95.04 ± 0.59 | –
163.52 K | 96.13 ± 0.59 | –
166.54 K | 97.21 ± 0.59 | –
169.55 K | 98.29 ± 0.6 | –
170 K | 98.46 ± 0.6 | –
172.58 K | 99.4 ± 0.6 | –
175.6 K | 100.5 ± 0.6 | –
178.62 K | 101.59 ± 0.6 | –
180 K | 102.09 ± 0.6 | –
181.65 K | 102.69 ± 0.61 | –
184.69 K | 103.79 ± 0.61 | –
187.72 K | 104.9 ± 0.61 | –
190 K | 105.74 ± 0.61 | –
190.75 K | 106.01 ± 0.61 | –
193.79 K | 107.09 ± 0.61 | –
196.83 K | 108.2 ± 0.62 | –
199.86 K | 109.24 ± 0.62 | –
200 K | 109.29 ± 0.62 | –
202.9 K | 110.27 ± 0.62 | –
205.94 K | 111.41 ± 0.62 | –
208.97 K | 112.54 ± 0.63 | –
210 K | 112.91 ± 0.63 | –
212.01 K | 113.63 ± 0.63 | –
215.05 K | 114.77 ± 0.63 | –
218.09 K | 115.88 ± 0.63 | –
220 K | 116.57 ± 0.63 | –
221.12 K | 116.98 ± 0.63 | –
224.16 K | 118.12 ± 0.64 | –
227.19 K | 119.19 ± 0.64 | –
230 K | 120.22 ± 0.64 | –
230.23 K | 120.31 ± 0.64 | –
233.27 K | 121.42 ± 0.64 | –
236.31 K | 122.55 ± 0.65 | –
239.34 K | 123.69 ± 0.65 | –
240 K | 123.94 ± 0.65 | –
242.38 K | 124.8 ± 0.65 | –
245.41 K | 125.94 ± 0.65 | –
248.44 K | 127.13 ± 0.65 | –
250 K | 127.69 ± 0.66 | –
251.48 K | 128.22 ± 0.66 | –
254.52 K | 129.34 ± 0.66 | –
257.56 K | 130.47 ± 0.66 | –
260 K | 131.36 ± 0.66 | –
260.6 K | 131.58 ± 0.66 | –
263.64 K | 132.68 ± 0.67 | –
266.67 K | 133.83 ± 0.67 | –
269.71 K | 134.94 ± 0.67 | –
270 K | 135.04 ± 0.67 | –
272.74 K | 136.06 ± 0.67 | –
275.78 K | 137.2 ± 0.67 | –
278.81 K | 138.23 ± 0.68 | –
280 K | 138.63 ± 0.68 | –
281.84 K | 139.24 ± 0.68 | –
284.87 K | 140.31 ± 0.68 | –
287.9 K | 141.45 ± 0.68 | –
290 K | 142.24 ± 0.68 | –
290.93 K | 143.08 ± 0.69 | –
292.89 K | 143.33 ± 0.69 | –
293.96 K | 143.64 ± 0.69 | –
295.8 K | 144.5 ± 0.69 | –
296.99 K | 144.79 ± 0.69 | –
298.15 K | 145.34 ± 0.69 | –
298.79 K | 145.71 ± 0.69 | –
300 K | 145.97 ± 0.69 | –
300.02 K | 145.98 ± 0.69 | –
301.84 K | 146.94 ± 0.69 | –
303.03 K | 147.07 ± 0.69 | –
304.88 K | 148.06 ± 0.7 | –
306.05 K | 148.21 ± 0.7 | –
307.92 K | 149.18 ± 0.7 | –
309.07 K | 149.34 ± 0.7 | –
310 K | 149.79 ± 0.7 | –
310.96 K | 150.23 ± 0.7 | –
312.09 K | 150.47 ± 0.7 | –
314 K | 151.06 ± 0.7 | –
317.04 K | 152.02 ± 0.7 | –
320 K | 153.12 ± 0.71 | –
320.07 K | 153.14 ± 0.71 | –
323.1 K | 154.4 ± 0.71 | –
326.13 K | 155.58 ± 0.71 | –
329.16 K | 156.76 ± 0.71 | –
330 K | 157.09 ± 0.71 | –
332.19 K | 157.97 ± 0.72 | –
335.22 K | 159.26 ± 0.72 | –
338.24 K | 160.5 ± 0.72 | –
340 K | 161.27 ± 0.72 | –
341.26 K | 161.81 ± 0.72 | –
344.28 K | 163.16 ± 0.73 | –
347.3 K | 164.65 ± 0.73 | –
350 K | 166.05 ± 0.73 | –
350.32 K | 166.28 ± 0.73 | –
360 K | 171.43 ± 0.74 | –
360.48 K | 171.7 ± 0.74 | 190.38 ± 0.78
362.85 K | – | 190.92 ± 0.78
363.89 K | – | 191.22 ± 0.78
365.71 K | – | 191.62 ± 0.78
366.91 K | – | 191.91 ± 0.78
368.72 K | – | 192.27 ± 0.78
369.93 K | – | 192.55 ± 0.79
370 K | – | 192.57 ± 0.78
371.72 K | – | 192.9 ± 0.79
372.94 K | – | 193.22 ± 0.79
374.79 K | – | 193.57 ± 0.79
377.7 K | – | 194.15 ± 0.79
380 K | – | 194.61 ± 0.79
380.68 K | – | 194.75 ± 0.79
